Results: patent US9890166B2, “Imidazopyrrolidine derivatives and their use in the treatment of disease” (NOVARTIS AG, priority 2013, dated 2018)

Experiments:
[1] = target: CREBBP bromodomain (His-CREBBP(1081-1197)) (Homo sapiens (Human), UniProt Q92793); test: AlphaScreen in-vitro binding assay for CREBBP; conditions: single determination or n ≧ 2 independent determinations, read-out: Biochemical IC50 CREBBP
How it was run: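 Detection used nickel-chelate acceptor plus streptavidin donor AlphaScreen beads, 1 h room temperature. Percent inhibition fitted by non-linear regression to IC50.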

K-562 cells = test: Cell growth inhibition assay (CellTiter-Glo), K-562; conditions: for GI50: Homo sapiens, K562, read-out: K-562 GI50; for K-562 TGI: K-562 cells, total growth inhibition, CellTiter-Glo;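 as to all read-outs here: cellular ATP measured by luminescence after 4 days of exposure, 3-fold dilution series from 10 µM, DMSO vehicle-treated cells define 100%, cell-free medium wells −100%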
BRD4 (His-Brd4(44-477)) = BRD4 (His-Brd4(44-477)) (Homo sapiens (Human), UniProt O60885); test: TR-FRET in-vitro binding assay for BRD4; conditions: single determination or n ≧ 2 independent determinations, read-out: Biochemical IC50 BRD4
How it was run: (§1)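 In this TR-FRET format, each compound was tested as an 8-point dilution series, single point per concentration, dispensed from 90% DMSO solution. Incubation lasted 35 minutes at 30° C.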

THP-1 cells = test: Cell growth inhibition assay (CellTiter-Glo), THP-1; conditions: for GI50: Homo sapiens, THP-1, read-out: THP-1 GI50; for THP-1 TGI: THP-1 cells, total growth inhibition, CellTiter-Glo;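 as to all read-outs here: viability read as cellular ATP luminescence after 4 days, 3-fold dilution series from 10 µM, DMSO vehicle-treated cells taken as 100%, cell-free medium wells as −100%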
BRD2 (His-Brd2(60-472)) = BRD2 (His-Brd2(60-472)) (Homo sapiens (Human), UniProt P25440); test: TR-FRET in-vitro binding assay for BRD2; conditions: single determination or n ≧ 2 independent determinations, read-out: Biochemical IC50 BRD2
Description: TR-FRET In-Vitro Binding Assays for BRD2, BRD3, and BRD4:
All assays were performed in 384 well microtiter plates. Each assay plate contained 8-point serial dilutions for 40 test compounds, plus 16 high- and 16 low controls. Liquid handling and incubation steps were done on an Innovadyne Nanodrop Express equipped with a robotic arm (Thermo CatX, Perkin Elmer/Caliper Twister II) and an incubator (Liconic STX40, Thermo Cytomat 2C450). The assay plates were prepared by addition of 50 nl per well of compound solution in 90% DMSO HummingBird nanodispenser (Zinsser Analytic). […] Reactions were incubated at 30° C. for 35 minutes. […] After 35 minutes incubation at 30° C., plates were measured in a Perkin Elmer EnVision multilabel reader.
Preparation of Compound Dilutions
Test compounds were dissolved in DMSO (10 mM) and transferred into 1.4 mL flat bottom or V-shaped Matrix tubes carrying a unique 2D matrix. The stock solutions were stored at […] if not used immediately. For the test procedure the vials were defrosted and identified by a scanner whereby a working sheet was generated that guided the subsequent working steps.
Compound dilutions were made in 96 well plates. This format enabled the assay of maximally 40 individual test compounds at 8 concentrations (single points) including 4 reference compounds, if desired (known BET inhibitors from the prior art, for this and other assays of the type disclosed herein). The dilution protocol included the production of “pre-dilution plates”, “master plates” and “assay plates”.
Pre-Dilution Plates: 96 polypropylene well plates were used as pre-dilution plates. A total of 4 pre-dilution plates were prepared including 10 test compounds each on the plate positions A1-A10, one standard compound at A11 and one DMSO control at A12. All dilution steps were done on a HamiltonSTAR robot.
These plates were used directly for the assay which was performed in a total volume of 13.55 μL.

BRD3 (His-Brd3(20-477)) = BRD3 (His-Brd3(20-477)) (Homo sapiens (Human), UniProt Q15059); test: TR-FRET in-vitro binding assay for BRD3; conditions: single determination or n ≧ 2 independent determinations, read-out: Biochemical IC50 BRD3
How it was run: as §1

MV-4-11 cells = test: Cell growth inhibition assay (CellTiter-Glo), MV-4-11; conditions: for GI50: Homo sapiens, MV4-11, read-out: MV-4-11 GI50; for MV-4-11 TGI: MV-4-11 cells, total growth inhibition, CellTiter-Glo;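 as to all read-outs here: cellular ATP luminescence after 4 days, 3-fold dilution series from 10 µM top dose, vehicle (0.1% DMSO) set to 100%, cell-free medium set to −100%, day 0 corrected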

Sequence of CREBBP bromodomain (His-CREBBP(1081-1197)) (Q92793 1081-1197): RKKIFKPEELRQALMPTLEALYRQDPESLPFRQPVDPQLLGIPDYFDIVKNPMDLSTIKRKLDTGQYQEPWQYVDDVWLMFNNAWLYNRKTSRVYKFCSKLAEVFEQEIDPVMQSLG
Sequence of BRD2 (His-Brd2(60-472)) (P25440 60-472): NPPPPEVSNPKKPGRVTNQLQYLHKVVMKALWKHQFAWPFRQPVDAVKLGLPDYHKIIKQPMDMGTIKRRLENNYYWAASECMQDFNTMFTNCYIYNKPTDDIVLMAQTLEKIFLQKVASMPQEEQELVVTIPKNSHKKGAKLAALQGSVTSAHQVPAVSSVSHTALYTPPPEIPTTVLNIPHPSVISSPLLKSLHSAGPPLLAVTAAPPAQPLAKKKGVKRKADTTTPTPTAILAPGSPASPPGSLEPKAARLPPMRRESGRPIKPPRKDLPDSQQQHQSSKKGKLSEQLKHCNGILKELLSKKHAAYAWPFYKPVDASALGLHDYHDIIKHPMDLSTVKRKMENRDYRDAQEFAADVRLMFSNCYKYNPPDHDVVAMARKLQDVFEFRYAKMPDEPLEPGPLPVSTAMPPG
Sequence of BRD3 (His-Brd3(20-477)) (Q15059 20-477): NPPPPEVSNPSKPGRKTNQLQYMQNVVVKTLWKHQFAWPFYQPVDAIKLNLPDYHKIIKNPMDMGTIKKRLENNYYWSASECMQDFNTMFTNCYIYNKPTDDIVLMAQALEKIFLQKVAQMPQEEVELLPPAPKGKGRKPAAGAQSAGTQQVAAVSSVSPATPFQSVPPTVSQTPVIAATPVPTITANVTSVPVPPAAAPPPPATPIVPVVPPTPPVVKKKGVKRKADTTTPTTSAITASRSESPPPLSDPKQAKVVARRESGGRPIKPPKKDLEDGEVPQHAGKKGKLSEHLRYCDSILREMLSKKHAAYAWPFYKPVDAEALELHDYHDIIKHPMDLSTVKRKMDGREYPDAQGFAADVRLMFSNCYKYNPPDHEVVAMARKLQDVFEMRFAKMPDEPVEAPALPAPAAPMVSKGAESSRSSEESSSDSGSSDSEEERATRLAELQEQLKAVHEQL

Compound | IC50 [1] [µM] | GI50 (K-562 cells) [µM] | K-562 TGI (K-562 cells) [µM] | IC50 (BRD4 (His-Brd4(44-477))) [µM] | GI50 (THP-1 cells) [µM] | THP-1 TGI (THP-1 cells) [µM] | IC50 (BRD2 (His-Brd2(60-472))) [µM] | IC50 (BRD3 (His-Brd3(20-477))) [µM] | GI50 (MV-4-11 cells) [µM] | MV-4-11 TGI (MV-4-11 cells) [µM]
Cc1cc(N2C(=O)c3nc(C4=CCOCC4)n(C(C)C)c3C2c2ccc(Cl)cc2)cn2c(C(F)F)nnc12 (stereo not drawn) [Example 147, 6-(4-chlorophenyl)-5-(3-(difluoromethyl)-8-methyl-[1,2,4]triazolo[4,3-a]pyridin-6-yl)-2-(3,6-dihydro-2H-pyran-4-yl)-1-isopropyl-5,6-dihydropyrrolo[3,4-d]imidazol-4(1H)-one] | 34.3 | 0.052 | >10 | 0.013 | 0.0118 | 0.03355 | 0.06 | 0.044 | 0.00812 | 0.01625
COc1ccc(-c2nc3c([nH]2)[C@@H](c2ccc(Cl)cc2)N(c2cc(OC)c4nnc(C)n4c2)C3=O)cn1 [Example 126, (R)-6-(4-chlorophenyl)-5-(8-methoxy-3-methyl-[1,2,4]triazolo[4,3-a]pyridin-6-yl)-2-(6-methoxypyridin-3-yl)-5,6-dihydropyrrolo[3,4-d]imidazol-4(1H)-one] | 25.9 | 2.27 | >10 | 0.104 | 0.947 | 1.7 | 0.385 | 0.283 | 0.408 | 0.592
Cc1cc(N2C(=O)c3nc(C4CCOCC4)n(C(C)C)c3C2c2ccc(Cl)cc2)cn2c(C)nnc12 (stereo not drawn) [Example 86, 6-(4-chlorophenyl)-5-(3,8-dimethyl-[1,2,4]triazolo[4,3-a]pyridin-6-yl)-1-isopropyl-2-(tetrahydro-2H-pyran-4-yl)-5,6-dihydropyrrolo[3,4-d]imidazol-4(1H)-one] | 3.8 | 0.249 | >10 | < 0.011 | 0.057 | 0.155 | 0.019 | < 0.011 | 0.0208 | 0.043
Cc1cc(N2C(=O)c3nc(C4=CCN(S(C)(=O)=O)CC4)n(C(C)C)c3C2c2ccc(Cl)cc2)cn2c(C)nnc12 (stereo not drawn) [Example 67, 6-(4-chlorophenyl)-5-(3,8-dimethyl-[1,2,4]triazolo[4,3-a]pyridin-6-yl)-1-isopropyl-2-(1-(methylsulfonyl)-1,2,3,6-tetrahydropyridin-4-yl)-5,6-dihydropyrrolo[3,4-d]imidazol-4(1H)-one] | 5.2 | 5.41 | >10 | 0.017 | 1.28 | 3.275 | 0.038 | 0.0205 | 0.165 | 0.3325
Cc1cc(N2C(=O)c3nc(C4=CCOCC4)n(C(C)C)c3C2c2ccc(Cl)cc2)nn2c(C(F)F)nnc12 (stereo not drawn) [Example 161, 6-(4-chlorophenyl)-5-(3-(difluoromethyl)-8-methyl-[1,2,4]triazolo[4,3-b]pyridazin-6-yl)-2-(3,6-dihydro-2H-pyran-4-yl)-1-isopropyl-5,6-dihydropyrrolo[3,4-d]imidazol-4(1H)-one] | > 37 | 0.0752 | >10 | 0.015 | 0.00609 | 0.01365 | 0.03 | 0.016 | 0.00599 | 0.01365
Cc1cc(N2C(=O)c3nc(C4=CCOCC4)n(C(C)C)c3C2c2ccc(Cl)cc2)cc2c1nnn2C (stereo not drawn) [Example 79, 6-(4-chlorophenyl)-2-(3,6-dihydro-2H-pyran-4-yl)-5-(1,4-dimethyl-1H-benzo[d][1,2,3]triazol-6-yl)-1-isopropyl-5,6-dihydropyrrolo[3,4-d]imidazol-4(1H)-one] | 3.4 | 0.0295 | >10 | 0.026 | 0.00792 | 0.0179 | 0.046 | 0.0215 | 0.00558 | 0.0111
